# Data taken from publication PMC7580737, “Synthesis, in vitro inhibitory activity, kinetic study and molecular docking of novel N-alkyl–deoxynojirimycin derivatives as potential α-glucosidase inhibitors” (Journal of Enzyme Inhibition and Medicinal Chemistry, 2020).
# Read-outs that look alike come from different tables or passages of the source.
# What was measured:
# [1] = target: α-glucosidase (EC 3.2.1.20) (Saccharomyces cerevisiae, UniProt P53341); assay: biochemical; assay type: biochemical
# α-glucosidase = target: T1, α-glucosidase (Saccharomyces cerevisiae, UniProt P53341); assay: Kinetic study of α-glucosidase inhibition (Lineweaver–Burk plots); assay type: biochemical; conditions: for Type of inhibition: Lineweaver–Burk plots: Vmax not affected, Km increased; for Ki: determined by Lineweaver–Burk plots
# T1 construct: purchased Sigma-Aldrich
# Experimental: The type of inhibition and value of Ki were determined by Lineweaver–Burk plots.
# The 10 µL of enzyme solution (1 U/mL) was incubated with different concentrations of compound 43 (0.00 mM,0.012 mM, 0.02 mM, 0.04 mM), 40 (0.00 mM, 0.06 mM, 0.10 mM, 0.20 mM)and 34 (0.00 mM, 0.30 mM, 0.50 mM, 1.00 mM) for 20 min at 37 °C, then added different concentrations of substrate (1 mM, 0.9 mM, 0.75 mM, 0.6 mM, 0.45 mM, 0.3 mM, 0.25 mM), and change in absorbance was measured for 20 min at 405 nm by using spectrophotometer.
# [2] = phosphate buffer pH 6.8, 37 °C, PNPG substrate, mean ± SD, at least three experiments, read-out: IC50 (α-glucosidase inhibitory activity)
# T1 sequence (P53341 whole entry): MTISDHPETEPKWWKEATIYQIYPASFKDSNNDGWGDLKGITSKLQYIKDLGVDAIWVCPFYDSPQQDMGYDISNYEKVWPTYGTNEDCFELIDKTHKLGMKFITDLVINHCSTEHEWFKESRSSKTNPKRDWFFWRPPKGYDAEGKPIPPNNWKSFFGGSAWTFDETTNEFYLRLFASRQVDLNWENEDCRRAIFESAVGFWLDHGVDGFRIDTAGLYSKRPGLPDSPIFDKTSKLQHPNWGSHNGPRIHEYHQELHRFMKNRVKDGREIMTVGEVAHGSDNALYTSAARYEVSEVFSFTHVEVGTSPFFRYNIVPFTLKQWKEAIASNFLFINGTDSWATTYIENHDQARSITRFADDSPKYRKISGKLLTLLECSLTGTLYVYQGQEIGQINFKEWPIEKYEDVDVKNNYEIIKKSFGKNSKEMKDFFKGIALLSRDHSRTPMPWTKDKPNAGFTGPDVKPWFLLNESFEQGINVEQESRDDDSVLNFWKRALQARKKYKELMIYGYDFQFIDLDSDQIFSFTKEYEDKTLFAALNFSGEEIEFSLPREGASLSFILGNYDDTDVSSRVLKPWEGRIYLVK
# Chain of α-glucosidase (EC 3.2.1.20) (P53341 whole entry): as above
SMILES,IC50 [1],melting point,"IC50 [1, 2]",other results
"O=C(/C=C/c1ccccc1)OCCN1C[C@H](O)[C@@H](O)[C@H](O)[C@H]1CO [Compound 25, 2-(3,4,5-Trihydroxy-2-(hydroxymethyl)piperidin-1-yl) ethyl cinnamate]",1094 ± 1.8 µM,–,–,–
"O=C(/C=C/c1ccccc1)OCCCN1C[C@H](O)[C@@H](O)[C@H](O)[C@H]1CO [Compound 26, 3-(3,4,5-Trihydroxy-2-(hydroxymethyl)piperidin-1-yl) ethyl cinnamate]",1099 ± 1.1 µM,–,–,–
O=C(/C=C/c1ccccc1)OCCCCCCN1C[C@H](O)[C@@H](O)[C@H](O)[C@H]1CO [Compound 29],976.5 ± 0.7 µM,–,–,–
"COC(=O)/C=C/c1ccc(OCCN2CC(O)C(O)C(O)C2CO)cc1 (stereo not drawn) [Compound 30, Methyl(E)-3-(4-(2-(3,4,5-trihydroxy-2-(hydroxymethyl)piperidin-1-yl)ethoxy)phenyl) acrylate]",1272.2 ± 1.2 µM,185 to 187 °C,–,–
COC(=O)C=Cc1ccc(OCCCN2CC(O)C(O)C(O)C2CO)cc1 (stereo not drawn) [Compound 31],–,104 to 107 °C,> 2000 µM,–
COC(=O)C=Cc1ccc(OCCCCN2CC(O)C(O)C(O)C2CO)cc1 (stereo not drawn) [Compound 32],667 ± 1.6 µM,157 to 160 °C,–,–
COC(=O)C=Cc1ccc(OCCCCCN2CC(O)C(O)C(O)C2CO)cc1 (stereo not drawn) [Compound 33],602.3 ± 1.2 µM,85 to 86 °C,–,–
COC(=O)C=Cc1ccc(OCCCCCCN2CC(O)C(O)C(O)C2CO)cc1 (stereo not drawn) [Compound 34],417 ± 0.14 µM,110 to 113 °C,–,Type of inhibition (α-glucosidase): competitive inhibitors; Ki (α-glucosidase): 150 µM
"CCOC(=O)/C=C/c1ccc(OCCN2CC(O)C(O)C(O)C2CO)c(OC)c1 (stereo not drawn) [Compound 35, Ethyl(E)-3-(3-methoxy-4-(2-(3,4,5-trihydroxy-2-(hydroxymethyl)piperidin-1-yl)ethoxy)phenyl)acrylate]",966.2 ± 0.4 µM,146 to 148 °C,–,–
CCOC(=O)C=Cc1ccc(OCCCN2CC(O)C(O)C(O)C2CO)c(OC)c1 (stereo not drawn) [Compound 36],–,–,> 2000 µM,–
CCOC(=O)C=Cc1ccc(OCCCCN2CC(O)C(O)C(O)C2CO)c(OC)c1 (stereo not drawn) [Compound 37],–,–,> 2000 µM,–
CCOC(=O)C=Cc1ccc(OCCCCCN2CC(O)C(O)C(O)C2CO)c(OC)c1 (stereo not drawn) [Compound 38],–,–,> 2000 µM,–
"CCOC(=O)C=Cc1ccc(OCCCCCCN2CC(O)C(O)C(O)C2CO)c(OC)c1 (stereo not drawn) [Compound 39, Ethyl(E)-3-(3-methoxy-4-(6-(3,4,5-trihydroxy-2-(hydroxymethyl)piperidin-1-yl)ethoxy)phenyl)acrylate]",–,–,> 2000 µM,–
"O=C(/C=C/c1ccccc1)c1ccccc1OCCN1CC(O)C(O)C(O)C1CO (stereo not drawn) [Compound 40, (E)-3-phenyl-1-(2-(2-(3,4,5-trihydroxy-2-(hydroxymethyl)piperidin-1-yl)ethoxy)phenyl)prop-2-en-1-one]",160.5 ± 0.6 µM,–,–,fold more active than acarbose [1]: around 5 fold; Type of inhibition (α-glucosidase): competitive inhibitors; Ki (α-glucosidase): 52 µM
O=C(C=Cc1ccccc1)c1ccccc1OCCCCCN1CC(O)C(O)C(O)C1CO (stereo not drawn) [Compound 43],30 ± 0.6 µM,–,–,fold more active than 1-DNJ [1]: ~7 fold; fold more active than acarbose [1]: ~27 fold; Type of inhibition (α-glucosidase): competitive inhibitors; Ki (α-glucosidase): 10 µM
